Measurements reported in patent US9365572B2, “PI3K and/or mTOR inhibitor” (XUANZHU PHARMA CO., LTD., priority 2012, dated 2016).

Tests used:
Test in all cases: Kinase selectivity, Mobility shift assay
Format in all cases: biochemical
ALK = ALK (Homo sapiens (Human), UniProt Q9UM73)
Description: (§1) Object: In this assay, the inhibitory activity of the test substance on the kinases listed in Table 3 was determined, and therefore the selectivity of the present compound was determined.
(§2) Except for the BRAF V600E kinase in Table 3, the Mobility shift assay was used for other kinases.
(§3) 1. Preparation of Agents:
(§4) • 1.1 1-fold kinase buffer without MnCl2: 50 mM HEPES, pH 7.5, 0.0015% Brij-35, 10 mM MgCl2, 2 mM DTT. • 1.2 1-fold kinase buffer with MnCl2: 50 mM HEPES, pH 7.5, 0.0015% Brij-35, 10 mM MgCl2, 10 mM MnCl2, 2 mM DTT. • 1.3 Termination solution: 100 mM HEPES, pH 7.5, 0.0015% Brij-35, 0.2% Coating Reagent#3, 50 mM EDTA. • 1.4 2.5-fold kinase solution: The kinase was added to the 1-fold kinase buffer to form a 2.5-fold kinase solution. • 1.5 2.5-fold substrate solution: FAM fluorescence-labelled polypeptide and ATP were added to the 1-fold kinase buffer to form a 2.5-fold substrate solution. 2. Preparation of 5-fold compound
(§5) The final test concentration of the compound was 10 μM at maximum. Firstly, a 50-fold concentration (i.e. 500 μM) was prepared with 100% DMSO. The compound was diluted with 100% DMSO by 5 folds at 5 concentrations (successively 500 μM, 100 μM, 20 μM, 4 μM, and 0.8 μM). After diluting with 1-fold kinase buffer by 10 folds, 5 μl of the samples were transferred to a 384-well reaction plate. Two negative control wells and two positive control wells were set at each line respectively. Replication was made in a 96-well plate in five concentrations of 5-fold compound. 10% DMSO was added to the positive control well, and 5 μl of EDTA (250 mM) was added to the negative control well.
(§6) • 3.1 To the 384-well reaction plate was added 5-fold compound dissolved in 10% DMSO at 5 μl/well. • 3.2 To the 384-well reaction plate was added 2.5-fold kinase solution at 10 μl/well. The plate was incubated at room temperature for 10 mins. • 3.3 To the 384-well reaction plate was added 2.5-fold substrate solution at 10 μl/well. The plate was incubated at 28° C. for a certain period. • 3.4 25 μl termination solution was added to terminate the reaction. The conversion was read from Caliper. 4. Inhibition rate calculation Inhibition rate (%)=(maximum−sample value)/(maximum−minimum)×100 • wherein: • maximum refers to the conversion at the DMSO control well, • minimum refers to the conversion at the control well without kinase. Lanthascreen Analysis Method for the BRAF V600E Kinase 1. Preparation of Agents: • 1.1 2-fold kinase solution: using 1-fold kinase buffer to prepare 2-fold kinase solution, with a final concentration of 0.35 nM of BRAFV600E; • 1.2 4-fold substrate solution: using 1-fold kinase buffer to prepare 4-fold substrate solution, with a final substrate solution concentration of 0.2 μM of Fluorescein-MAP2K1 and 1.5 μM of ATP. 2. Preparation of 4-fold compound • The final test concentration of the compound was 10 μM at maximum. Firstly, a 100-fold concentration (i.e. 1000 μM) was prepared with 100% DMSO. The compound was diluted with 100% DMSO by 5 folds at 5 concentrations. The compound series was identical to that in the Mobility Shift Assay. After diluting with 1-fold kinase buffer by 25 folds, the resulting samples were shaked and mixed evenly on a plate-shaker for 10 mins. 3. Procedure • 3.1 To the 384-well reaction plate was added 4-fold compound dissolved in 10% DMSO at 2.5 µl/well; • 3.2 To the 384-well reaction plate was added 2-fold kinase solution at 5 μl/well, and to the negative control wells were added 1-fold kinase buffer. The samples were shaked, mixed evenly, and kept standing at room temperature. • 3.3 To the 384-well reaction plate was added 4-fold substrate solution at 2.5 μl/well. The plate was reacted, shaked, mixed evenly and incubated at room temperature for one hour; • 3.4 Reaction result detection: 2-fold detection solution was prepared, with a final concentration of 2 nM of Antibody and 10 mM of EDTA. 10 μl of the detection solution was transferred to the 384-well plate to terminate the reaction. […]

CAMK2a = CAMK2a (Homo sapiens (Human), UniProt Q9UQM7)
Description: as §1, §2, §3, §4, §5, §6

CK1d = CK1d (Homo sapiens (Human), UniProt P48730)
Description: as §1, §2, §3, §4, §5, §6

DYRK1b = DYRK1b (Homo sapiens (Human), UniProt Q9Y463)
Description: as §1, §2, §3, §4, §5, §6

IKKB = IKKB (Homo sapiens (Human), UniProt O14920)
Description: as §1, §2, §3, §4, §5, §6

JAK3 = JAK3 (Homo sapiens (Human), UniProt P52333)
Description: as §1, §2, §3, §4, §5, §6

JNK2 = JNK2 (Homo sapiens (Human), UniProt P45984)
Description: as §1, §2, §3, §4, §5, §6

KDR = KDR (Homo sapiens (Human), UniProt P35968)
Description: as §1, §2, §3, §4, §5, §6

LYNa = LYNa (Homo sapiens (Human), UniProt P07948)
Description: as §1, §2, §3, §4, §5, §6

MAPKAPK2 = MAPKAPK2 (Homo sapiens (Human), UniProt P49137)
Description: as §1, §2, §3, §4, §5, §6

MARK1 = MARK1 (Homo sapiens (Human), UniProt Q9P0L2)
Description: as §1, §2, §3, §4, §5, §6

PDGFRb = PDGFRb (Homo sapiens (Human), UniProt P09619)
Description: as §1, §2, §3, §4, §5, §6

PDK1 = PDK1 (Homo sapiens (Human), UniProt O15530)
Description: as §1, §2, §3, §4, §5, §6

PKCa = PKCa (Homo sapiens (Human), UniProt P17252)
Description: as §1, §2, §3, §4, §5, §6

ROCK2 = ROCK2 (Homo sapiens (Human), UniProt O75116)
Description: as §1, §2, §3, §4, §5, §6

SGK = SGK (Homo sapiens (Human), UniProt O00141)
Description: as §1, §2, §3, §4, §5, §6

SRC = SRC (Homo sapiens (Human), UniProt P12931)
Description: as §1, §2, §3, §4, §5, §6

ZAP70 = ZAP70 (Homo sapiens (Human), UniProt P43403)
Description: as §1, §2, §3, §4, §5, §6

p38a = p38a (Homo sapiens (Human), UniProt Q16539)
Description: as §1, §2, §3, §4, §5, §6

KDR, sequence (P35968 20-1356, species assumed): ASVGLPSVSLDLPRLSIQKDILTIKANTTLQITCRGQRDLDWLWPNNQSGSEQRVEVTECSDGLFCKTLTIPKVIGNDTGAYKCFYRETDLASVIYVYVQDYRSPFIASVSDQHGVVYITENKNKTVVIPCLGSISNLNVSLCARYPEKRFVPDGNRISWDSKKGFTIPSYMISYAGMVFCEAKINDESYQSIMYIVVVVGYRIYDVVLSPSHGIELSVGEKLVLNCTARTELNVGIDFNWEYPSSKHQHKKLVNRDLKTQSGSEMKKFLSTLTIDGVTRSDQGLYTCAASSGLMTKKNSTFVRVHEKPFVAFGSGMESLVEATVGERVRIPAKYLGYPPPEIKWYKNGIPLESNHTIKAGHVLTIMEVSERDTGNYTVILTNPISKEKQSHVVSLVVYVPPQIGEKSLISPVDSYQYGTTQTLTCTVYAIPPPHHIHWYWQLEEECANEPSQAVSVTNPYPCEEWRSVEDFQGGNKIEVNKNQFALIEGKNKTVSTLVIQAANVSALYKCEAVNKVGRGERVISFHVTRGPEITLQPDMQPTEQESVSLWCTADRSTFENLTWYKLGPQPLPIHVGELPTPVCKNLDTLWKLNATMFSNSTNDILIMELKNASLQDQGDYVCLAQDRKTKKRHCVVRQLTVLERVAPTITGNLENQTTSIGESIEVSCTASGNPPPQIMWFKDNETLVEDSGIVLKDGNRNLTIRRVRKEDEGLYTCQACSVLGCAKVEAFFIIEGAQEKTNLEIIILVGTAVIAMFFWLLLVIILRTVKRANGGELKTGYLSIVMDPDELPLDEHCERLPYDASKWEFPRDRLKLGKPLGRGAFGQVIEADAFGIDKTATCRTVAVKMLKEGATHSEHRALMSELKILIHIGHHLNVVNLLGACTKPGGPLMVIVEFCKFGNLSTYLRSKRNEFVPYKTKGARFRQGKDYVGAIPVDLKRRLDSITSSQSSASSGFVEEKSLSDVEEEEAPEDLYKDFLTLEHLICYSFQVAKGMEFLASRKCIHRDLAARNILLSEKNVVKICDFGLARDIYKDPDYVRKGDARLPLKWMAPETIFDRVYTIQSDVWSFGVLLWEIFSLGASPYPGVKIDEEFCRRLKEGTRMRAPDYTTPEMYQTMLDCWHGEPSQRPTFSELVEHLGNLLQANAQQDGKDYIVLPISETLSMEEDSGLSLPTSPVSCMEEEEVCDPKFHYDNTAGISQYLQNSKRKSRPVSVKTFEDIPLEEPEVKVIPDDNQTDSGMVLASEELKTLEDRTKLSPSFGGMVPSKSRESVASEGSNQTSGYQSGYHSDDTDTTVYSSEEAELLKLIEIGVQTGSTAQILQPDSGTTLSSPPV
ZAP70, sequence (P43403 whole entry, species assumed): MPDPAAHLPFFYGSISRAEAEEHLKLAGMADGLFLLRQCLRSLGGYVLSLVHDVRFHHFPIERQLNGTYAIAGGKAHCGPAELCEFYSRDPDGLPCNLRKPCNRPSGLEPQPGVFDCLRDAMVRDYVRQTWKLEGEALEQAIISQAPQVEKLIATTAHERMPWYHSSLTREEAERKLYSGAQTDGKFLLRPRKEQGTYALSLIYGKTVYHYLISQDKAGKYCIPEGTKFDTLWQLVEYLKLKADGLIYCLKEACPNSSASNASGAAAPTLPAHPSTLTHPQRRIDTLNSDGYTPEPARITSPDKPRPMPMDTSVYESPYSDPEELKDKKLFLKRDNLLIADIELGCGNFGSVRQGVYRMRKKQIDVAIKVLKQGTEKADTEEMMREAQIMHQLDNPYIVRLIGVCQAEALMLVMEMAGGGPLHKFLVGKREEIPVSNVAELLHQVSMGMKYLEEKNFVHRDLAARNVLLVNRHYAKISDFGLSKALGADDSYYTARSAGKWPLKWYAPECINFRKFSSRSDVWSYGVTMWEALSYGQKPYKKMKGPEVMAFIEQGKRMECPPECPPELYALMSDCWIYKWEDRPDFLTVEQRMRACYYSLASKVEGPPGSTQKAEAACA
CAMK2a, sequence (Q9UQM7 whole entry, species assumed): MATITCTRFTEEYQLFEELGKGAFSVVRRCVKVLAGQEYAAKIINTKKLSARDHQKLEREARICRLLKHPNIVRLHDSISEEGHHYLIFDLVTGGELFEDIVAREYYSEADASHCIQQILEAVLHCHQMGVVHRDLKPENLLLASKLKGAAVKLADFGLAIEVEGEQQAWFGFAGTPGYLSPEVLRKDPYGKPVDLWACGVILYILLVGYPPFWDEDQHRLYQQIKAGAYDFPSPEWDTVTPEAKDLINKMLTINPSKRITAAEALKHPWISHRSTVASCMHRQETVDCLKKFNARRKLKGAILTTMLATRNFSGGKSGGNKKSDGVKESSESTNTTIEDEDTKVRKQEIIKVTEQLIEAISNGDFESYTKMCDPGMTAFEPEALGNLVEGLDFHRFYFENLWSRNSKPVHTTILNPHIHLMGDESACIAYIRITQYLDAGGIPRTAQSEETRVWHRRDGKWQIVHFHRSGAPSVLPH
DYRK1b, sequence (Q9Y463 whole entry, species assumed): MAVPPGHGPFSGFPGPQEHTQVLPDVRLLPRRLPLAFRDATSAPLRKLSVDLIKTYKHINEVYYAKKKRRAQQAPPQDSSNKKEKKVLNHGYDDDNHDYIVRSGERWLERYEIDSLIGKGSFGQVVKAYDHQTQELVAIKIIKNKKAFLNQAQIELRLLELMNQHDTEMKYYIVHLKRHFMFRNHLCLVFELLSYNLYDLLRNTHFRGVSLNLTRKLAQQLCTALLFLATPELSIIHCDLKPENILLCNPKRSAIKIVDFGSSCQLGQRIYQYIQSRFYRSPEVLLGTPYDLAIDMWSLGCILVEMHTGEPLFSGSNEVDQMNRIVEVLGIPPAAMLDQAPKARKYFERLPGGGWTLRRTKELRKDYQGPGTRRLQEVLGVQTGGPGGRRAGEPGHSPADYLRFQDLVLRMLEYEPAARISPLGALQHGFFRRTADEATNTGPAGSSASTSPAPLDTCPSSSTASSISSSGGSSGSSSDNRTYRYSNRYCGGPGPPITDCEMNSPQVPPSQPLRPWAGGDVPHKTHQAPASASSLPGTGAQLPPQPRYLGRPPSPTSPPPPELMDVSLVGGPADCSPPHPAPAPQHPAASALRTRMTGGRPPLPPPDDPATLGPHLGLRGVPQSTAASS
SRC, sequence (P12931 whole entry, looked up, species assumed): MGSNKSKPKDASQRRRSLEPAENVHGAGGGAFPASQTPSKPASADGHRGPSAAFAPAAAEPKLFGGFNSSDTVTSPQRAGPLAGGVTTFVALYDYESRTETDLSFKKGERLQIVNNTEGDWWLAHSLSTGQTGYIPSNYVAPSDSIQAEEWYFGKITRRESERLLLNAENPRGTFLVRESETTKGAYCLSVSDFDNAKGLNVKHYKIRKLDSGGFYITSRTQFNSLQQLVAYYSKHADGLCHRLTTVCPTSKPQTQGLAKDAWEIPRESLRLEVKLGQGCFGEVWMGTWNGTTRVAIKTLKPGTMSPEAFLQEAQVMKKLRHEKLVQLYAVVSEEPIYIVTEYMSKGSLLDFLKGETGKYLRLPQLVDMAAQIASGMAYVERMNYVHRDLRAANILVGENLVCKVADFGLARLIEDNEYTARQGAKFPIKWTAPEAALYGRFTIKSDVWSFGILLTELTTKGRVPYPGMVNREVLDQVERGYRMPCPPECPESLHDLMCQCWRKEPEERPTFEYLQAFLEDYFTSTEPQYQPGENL
SGK, sequence (O00141 whole entry, species assumed): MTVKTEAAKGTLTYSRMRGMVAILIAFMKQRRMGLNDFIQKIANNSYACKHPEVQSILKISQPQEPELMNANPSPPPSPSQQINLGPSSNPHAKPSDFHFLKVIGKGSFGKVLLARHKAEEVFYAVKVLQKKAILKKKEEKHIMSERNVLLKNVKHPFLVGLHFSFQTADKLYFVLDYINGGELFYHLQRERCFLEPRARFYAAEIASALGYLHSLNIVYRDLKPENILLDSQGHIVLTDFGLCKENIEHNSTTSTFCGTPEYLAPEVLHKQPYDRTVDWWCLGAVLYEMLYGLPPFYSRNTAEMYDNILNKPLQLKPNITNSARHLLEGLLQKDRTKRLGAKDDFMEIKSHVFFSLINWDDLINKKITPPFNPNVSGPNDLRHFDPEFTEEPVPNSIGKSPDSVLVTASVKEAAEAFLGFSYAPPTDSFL
p38a, sequence (Q16539 whole entry): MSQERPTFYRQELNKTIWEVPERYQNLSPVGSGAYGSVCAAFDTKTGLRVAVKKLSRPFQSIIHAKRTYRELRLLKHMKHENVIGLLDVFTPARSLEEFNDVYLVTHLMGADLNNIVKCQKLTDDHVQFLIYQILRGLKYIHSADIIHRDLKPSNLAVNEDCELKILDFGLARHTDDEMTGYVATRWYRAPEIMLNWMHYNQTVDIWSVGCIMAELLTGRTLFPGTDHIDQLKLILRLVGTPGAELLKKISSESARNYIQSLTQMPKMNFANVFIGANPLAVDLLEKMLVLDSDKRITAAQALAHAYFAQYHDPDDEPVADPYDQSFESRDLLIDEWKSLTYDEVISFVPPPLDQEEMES
JNK2, sequence (P45984 whole entry, species assumed): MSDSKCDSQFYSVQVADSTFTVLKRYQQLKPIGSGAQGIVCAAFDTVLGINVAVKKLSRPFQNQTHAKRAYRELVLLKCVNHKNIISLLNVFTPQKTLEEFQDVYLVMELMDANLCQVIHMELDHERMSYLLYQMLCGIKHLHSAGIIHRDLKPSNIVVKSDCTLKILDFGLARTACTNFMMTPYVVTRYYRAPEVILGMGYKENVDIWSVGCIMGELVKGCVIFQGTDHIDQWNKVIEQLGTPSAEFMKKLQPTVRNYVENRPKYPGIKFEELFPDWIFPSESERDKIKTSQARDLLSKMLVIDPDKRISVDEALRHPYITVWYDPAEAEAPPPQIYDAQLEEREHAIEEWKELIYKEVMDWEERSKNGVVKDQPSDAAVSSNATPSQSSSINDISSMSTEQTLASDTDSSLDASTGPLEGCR

Compound: Nc1ccc(-c2ccc3ncc4c(=O)[nH]c(=O)n(-c5cccc(C(F)(F)F)c5)c4c3n2)cn1 [Compound 5, 9-(6-aminopyridin-3-yl)-1-(3-(trifluoromethyl)phenyl)pyrimido[5,4-c][1,5]naphthyridine-2,4(1H,3H)-dione]
- IC50 (ALK): 1170 nM
- IC50 (CAMK2a): > 10000 nM
- IC50 (CK1d): > 10000 nM
- IC50 (DYRK1b): > 10000 nM
- IC50 (IKKB): > 10000 nM
- IC50 (JAK3): > 10000 nM
- IC50 (JNK2): > 10000 nM
- IC50 (KDR): > 10000 nM
- IC50 (LYNa): 1370 nM
- IC50 (MAPKAPK2): > 10000 nM
- IC50 (MARK1): > 10000 nM
- IC50 (PDGFRb): > 10000 nM
- IC50 (PDK1): > 10000 nM
- IC50 (PKCa): > 10000 nM
- IC50 (ROCK2): > 10000 nM
- IC50 (SGK): > 10000 nM
- IC50 (SRC): 842 nM
- IC50 (ZAP70): > 10000 nM
- IC50 (p38a): > 10000 nM
